Key:
[1] = Bone remodeling in mice given doxycycline in drinking water; format: in vivo; conditions: 0.5 mg/ml in drinking water; stated as established
Method: Tet-F6 and wild type animals are assessed for bone mass by in vivo DEXA analysis at weekly intervals following the turning on of the transgene or the overiectomy. At the end of the 4-6 week period, both groups of animals are sacrificed and the following determinations made: a) whole body and uterine and mammary gland weights, b) length of the long bones and the width between the periosteal and endosteal bone, c) osteoblastogenesis and osteoclastogenesis in ex vivo cultures of bone marrow cells, d) prevalence of osteoblast/osteocyte and osteoclast apoptosis in sections of vertebrae, e) rate of bone formation and resorption by dynamic histomorphometry and f) compression strength of the vertebrae. An intraperitoneal injection of 30ng/g body weight of oxytetracycline-hydrochloride is administered 8 days and 2 days before sacrificing the animals for the dynamic histomorphometry analysis. It is important to note that the TET ON system is 100-1000 fold less sensitive to tetracycline than it is to doxycycline. […] Therefore, this maneuver should not influence the expression of the transgene, which at this stage will have been turned on with doxycycline.

[2] = test system: embryonic fibroblasts derived from Src−/− mice; test: Apoptosis in embryonic fibroblasts from Src−/− mice; format: cell-based; conditions: ER- and AR-expressing, also lack yes and Fyn
Method: Cell lysates were obtained and proteins were analyzed by Western blot analysis using anti-ERK1/2 or anti-phospho-ERK1/2 (p-ERK1/2) antibodies. […] After 30 min, etoposide was added and apoptosis was assayed 6 hours later as in FIG. 1B. […] RT-PCR was performed as described in the experimental procedures. C-E. HeLa cells were transfected with Nuc-EGFP and with expression vectors encoding the full length ERα or its E domain, or the AR alone (C, left panel) or together with a dn MEK (C, right panel); a Src mutant lacking the kinase activity (Src K^−), a Src mutant lacking the SH2 domain (Src ΔSH2), or a Src mutant lacking the SH3 domain (Src ΔSH3) (D); or with ERα together with wt Shc, or the dn Shc mutants Y239F/Y240F/Y317F (Shc FFF), Y317F (Shc YYF) or Y239F/Y240F (Shc FFY) (E). Bars represent means±SD of triplicate determinations. *p<0.05 versus cells cultured without steroids, by ANOVA.
Quantification of apoptotic cells in vitro. Apoptotic cells were quantified either by trypan blue staining or by direct visualization of changes in nuclear morphology (in the case of transfected HeLa cells), as previously described (Plotkin,L. et al. (1999). J.
RT-PCR analysis of the ERs and AR in embryonic fibroblasts. […]

ERβ = ERβ (Homo sapiens, UniProt Q92731); test: Etoposide-induced apoptosis in HeLa cells transfected with ERβ; conditions: HeLa transfected with ERβ
Sequence of ERβ (Q92731 whole entry, species assumed): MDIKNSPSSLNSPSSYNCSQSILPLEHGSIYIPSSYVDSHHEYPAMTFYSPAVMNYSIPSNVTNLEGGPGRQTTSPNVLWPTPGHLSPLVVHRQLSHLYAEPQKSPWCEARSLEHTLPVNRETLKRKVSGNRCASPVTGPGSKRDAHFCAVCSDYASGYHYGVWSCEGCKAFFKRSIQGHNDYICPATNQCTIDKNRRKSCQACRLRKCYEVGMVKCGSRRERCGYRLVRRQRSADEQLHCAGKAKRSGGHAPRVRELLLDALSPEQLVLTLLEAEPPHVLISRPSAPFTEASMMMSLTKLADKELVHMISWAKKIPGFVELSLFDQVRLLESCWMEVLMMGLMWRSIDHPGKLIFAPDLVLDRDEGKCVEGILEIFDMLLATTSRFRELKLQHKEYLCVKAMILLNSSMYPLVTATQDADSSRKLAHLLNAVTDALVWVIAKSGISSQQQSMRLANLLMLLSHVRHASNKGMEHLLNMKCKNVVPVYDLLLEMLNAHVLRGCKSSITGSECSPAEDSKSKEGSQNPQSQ

[3] = test system: osteocytic cell line MLO-Y4; test: Apoptosis of MLO-Y4 osteocytic cells (trypan blue); format: cell-based
ERK1/2 = test: ERK phosphorylation in MLO-Y4 cells (Western blot); format: cell-based; conditions: MLO-Y4 cells
Method: Western blot analysis. The phosphorylation status of ERK1/2 was analyzed by immunoblotting using a mouse monoclonal antibody recognizing tyrosine phosphorylated ERK1/2, or a rabbit polyclonal antibody recognizing total ERK1/2, followed by incubation with either an anti-mouse or an anti-rabbit antibody conjugated with horseradish peroxidase (Santa Cruz Biotechnology).

[4] = test system: calvaria-derived murine osteoblastic cells; test: Apoptosis of calvaria-derived osteoblastic cells (trypan blue); conditions: 10^−8 M steroid
[5] = test system: HeLa cells transfected with the vector without receptor (empty vector, ev); test: Etoposide-induced apoptosis in HeLa cells transfected with empty vector; conditions: 10^−12M to 10^−8 M
[6] = test system: lactoferrin mRNA in the uterus; conditions: WT mice, E2 20 ng/g body weight for 28 days; stated as known; cited from earlier work
[7] = test system: vertebral osteoblast and osteocyte apoptosis; test: Osteoblast and osteocyte apoptosis in vertebrae of ovariectomized mice (TUNEL); format: in vivo; conditions: data not shown

| effect on bone remodeling [1] | SMILES | anti-apoptotic effect in Src−/− fibroblasts (unlike Src+/+ wild type controls) [2] | prevention of etoposide-induced apoptosis (ERβ) | prevention of apoptosis induced by etoposide, dexamethasone or TNFα ([3]; 10^−8 M steroid) | dose-dependent inhibition of etoposide-induced apoptosis compared with calvaria cells ([3]; not shown) | time of maximal effect on phosphorylation of ERKs (ERK1/2) | prevention of apoptosis induced by etoposide, dexamethasone or TNFα [4] | effect on etoposide-induced apoptosis [5] | increase of lactoferrin mRNA in the uterus [6] | prevention of the ovariectomy-induced increase in osteoblast and osteocyte apoptosis [7] |
| --- | --- | --- | --- | --- | --- | --- | --- | --- | --- | --- |
| no effect on bone remodeling | C[C@H]1c2cccc(O)c2C(=O)C2=C(O)[C@]3(O)C(=O)C(C(N)=O)=C(O)[C@@H](N(C)C)[C@@H]3[C@@H](O)[C@@H]21 [doxycycline] | – | – | – | – | – | – | – | – | – |
| – | C[C@]12CC[C@@H]3c4ccc(O)cc4CC[C@H]3[C@@H]1CC[C@@H]2O [E2, 17β-estradiol] | unresponsive | prevented apoptosis in a dose-dependent manner | prevented apoptosis | identical results | 5 min | prevented apoptosis | Neither E2 nor DHT (10^−12M to 10^−8 M) had an effect | approximately 5 fold | prevented |
